Activity calls are given as the source filed them. The rule behind the calls is not given here.
Assays:
[1] = system: HepG2; assay: Upregulation of LDLR mRNA expression in human HepG2 cells by RT-PCR; format: functional, cell-based
[2] = Lipophilicity, log P of the compound; format: physicochemical; conditions: octanol/water
[3] = system: Rattus norvegicus; assay: Hypolipidemic activity in high fat high cholesterol diet fed Sprague-Dawley rat hyperlipidemic model assessed as reduction in total cholesterol 100 mg/kg, po qd for 28 days; set-up: scale not given: the % may be the effect or the level left
[4] = system: Rattus norvegicus; assay: Toxicity in high fat high cholesterol diet fed Sprague-Dawley rat hyperlipidemic model assessed as reduction in food intake at 100 mg/kg, po qd for 28 days; conditions: in vivo, 672 h
[5] = system: Rattus norvegicus; assay: Hypolipidemic activity in high fat high cholesterol diet fed Sprague-Dawley rat hyperlipidemic model assessed as reduction in LDL cholesterol 100 mg/kg, po qd for 28 days; set-up: scale not given: the % may be the effect or the level left
[6] = system: Rattus norvegicus; assay: Toxicity in high fat high cholesterol diet fed Sprague-Dawley rat hyperlipidemic model assessed as weight loss at 100 mg/kg, po qd for 28 days; conditions: in vivo, 672 h
[7] = system: Rattus norvegicus; assay: Toxicity in high fat high cholesterol diet fed Sprague-Dawley rat hyperlipidemic model assessed as liver of kidney function abnormalities at 100 mg/kg, po qd for 28 days; conditions: in vivo, 672 h

CCCCCCCCCC(=O)Oc1c(OC)ccc2cc3[n+](cc12)CCc1cc2c(cc1-3)OCO2
Activity [1]: inactive
logP [2]: 2.74

COc1ccc2cc3[n+](cc2c1OC(=O)/C=C/c1ccccc1)CCc1cc2c(cc1-3)OCO2
Activity [1]: inactive
logP [2]: 1.03

COc1ccc2cc3[n+](cc2c1O)CCc1cc2c(cc1-3)OCO2 [BERBERRUBINE CHLORIDE]
logP [2]: -1.06

COc1ccc2cc3[n+](cc2c1OCOC(=O)c1ccccc1)CCc1cc2c(cc1-3)OCO2
Activity [1]: inactive
logP [2]: 0.97

COc1ccc2cc3[n+](cc2c1OC(=O)c1ccccc1)CCc1cc2c(cc1-3)OCO2
Activity [1]: inactive
logP [2]: 0.58

CCCCCCCCCCCC(=O)Oc1c(OC)ccc2cc3[n+](cc12)CCc1cc2c(cc1-3)OCO2
Activity [1]: inactive
logP [2]: 3.8

COc1ccc2cc3[n+](cc2c1OC(=O)C(C)(C)C)CCc1cc2c(cc1-3)OCO2
Activity [1]: inactive
logP [2]: -0.25

CCCCCCCCCCCCCCCC(=O)Oc1c(OC)ccc2cc3[n+](cc12)CCc1cc2c(cc1-3)OCO2.[Cl-]
Activity [3]: 35.8%
Activity [1]: inactive
Activity [4]: Non-toxic
Activity [5]: 45.5%
Activity [6]: Non-toxic
Activity [7]: Non-toxic
logP [2]: 5.91

CCOC(=O)Oc1c(OC)ccc2cc3[n+](cc12)CCc1cc2c(cc1-3)OCO2
Activity [1]: inactive
logP [2]: -1.18

CCCCCCC(=O)Oc1c(OC)ccc2cc3[n+](cc12)CCc1cc2c(cc1-3)OCO2
Activity [1]: inactive
logP [2]: 1.16

CCCCCCCCCCCCCCCCCC(=O)Oc1c(OC)ccc2cc3[n+](cc12)CCc1cc2c(cc1-3)OCO2
Activity [1]: inactive
logP [2]: 6.98

CCCC(=O)Oc1c(OC)ccc2cc3[n+](cc12)CCc1cc2c(cc1-3)OCO2
Activity [1]: inactive
logP [2]: -0.43

COc1ccc2cc3[n+](cc2c1OCOC(=O)C(C)(C)C)CCc1cc2c(cc1-3)OCO2
Activity [1]: inactive
logP [2]: -0.06

CCCCC(=O)Oc1c(OC)ccc2cc3[n+](cc12)CCc1cc2c(cc1-3)OCO2
Activity [1]: inactive
logP [2]: 0.1

COc1ccc2cc3[n+](cc2c1OC)CCc1cc2c(cc1-3)OCO2.[Cl-] [BERBERINE CHLORIDE]
Activity [3]: 27.4%
Activity [5]: 38%
logP [2]: -0.92

CCCCCCCC(=O)Oc1c(OC)ccc2cc3[n+](cc12)CCc1cc2c(cc1-3)OCO2
Activity [1]: inactive
logP [2]: 1.69
